This is an account of results in patent publication US10865208B2, “ATG7 inhibitors and the uses thereof” (Millennium Pharmaceuticals, Inc., priority 2016, dated 2020).

The target of this test is recombinant human His-ATG7 enzyme (Homo sapiens (Human), UniProt O95352). As to the kind of experiment: ATG7 Enzyme Assay (HTRF/FRET, ATG3-GST and Flag-Gabarap). It is filed as biochemical. The following applies: for inhibition at 0.123 µM / inhibition at 0.111 µM: read-out: Percent Inhibition; for inhibition at 0.111 µM: Concentration 0.111 μM. The protocol:
Example 97: ATG7 Enzyme Assay
The total volume of the ATG7 enzymatic assay is 50 μL and contains 50 mM HEPES Hemisodium (pH 7.5), 0.05% BSA, 0.01% Tween-20, 25 mM NaCl, 5 mM MgCl2, 10 μM ATP, 250 μM GSH, 5 nM ATG3-GST, 5 nM Flag-Gabarap, 100 μM TCEP and 0.15 nM recombinant human His-ATG7 enzyme. The enzymatic reaction mixture, with and without inhibitor, was incubated at 24° C. for 105 min in a 384-well plate before termination with […] of Stop/Detection buffer (0.1M HEPES Hemisodium pH 7.5, 0.05% Tween20, 20 mM EDTA, 410 mM KF, 0.53 nM Europium-Cryptate labeled monoclonal anti-Flag M2 Antibody (CisBio International) and 8.125 μg/ml PHYCOLINK goat anti-GST allophycocyanin (XL-APC) antibody (Prozyme)). After incubation for 2 hours at 24° C., quantification of FRET is performed on the Pherostar™ (BMG Labtech). Percentage inhibition values at a single concentration or enzyme inhibition (IC50) values are determined from those curves. One skilled in the art will appreciate that the values generated either as percentage inhibition at a single concentration or IC50 values are subject to experimental variation.
In general terms: Time-resolved FRET reads energy transfer from a long-lived donor to a nearby acceptor.

Chain of recombinant human His-ATG7 enzyme (O95352 whole entry): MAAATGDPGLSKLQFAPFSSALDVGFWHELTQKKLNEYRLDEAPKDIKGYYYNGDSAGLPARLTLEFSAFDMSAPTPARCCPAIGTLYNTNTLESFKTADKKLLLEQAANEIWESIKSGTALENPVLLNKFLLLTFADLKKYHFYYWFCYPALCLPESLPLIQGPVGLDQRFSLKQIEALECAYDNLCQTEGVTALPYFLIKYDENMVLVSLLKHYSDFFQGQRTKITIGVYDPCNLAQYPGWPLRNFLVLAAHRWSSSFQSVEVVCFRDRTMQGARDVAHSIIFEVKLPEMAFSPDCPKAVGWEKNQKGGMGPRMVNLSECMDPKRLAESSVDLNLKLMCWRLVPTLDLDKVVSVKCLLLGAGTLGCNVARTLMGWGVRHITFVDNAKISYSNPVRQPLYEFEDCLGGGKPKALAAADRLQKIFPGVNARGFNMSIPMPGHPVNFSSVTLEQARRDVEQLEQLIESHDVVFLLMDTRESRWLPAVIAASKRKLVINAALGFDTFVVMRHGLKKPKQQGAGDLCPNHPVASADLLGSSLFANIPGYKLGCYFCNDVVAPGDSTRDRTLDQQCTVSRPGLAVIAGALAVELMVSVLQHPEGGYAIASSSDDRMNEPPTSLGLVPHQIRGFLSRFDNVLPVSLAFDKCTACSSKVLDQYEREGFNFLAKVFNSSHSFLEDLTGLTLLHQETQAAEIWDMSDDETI

For `COC(C)c1nn([C@@H]2O[C@H](COS(N)(=O)=O)[C@@H](O)[C@H]2O)c2ncnc(N)c12` (mixture of isomers) [Compound I-22, [(2R,3S,4R,5R)-5-{4-amino-3-[(1R)-1-methoxyethyl]-1H-pyrazolo[3,4-d]pyrimidin-1-yl}-3,4-dihydroxytetrahydrofuran-2-yl]methyl Sulfamate and [(2R,3S,4R,5R)-5-{4-amino-3-[(1S)-1-methoxyethyl]-1H-pyrazolo[3,4-d]pyrimidin-1-yl}-3,4-dihydroxytetrahydrofuran-2-yl]methyl Sulfamate], the IC50 (commonly the point on the concentration scale where inhibition reaches its midpoint) was over 500 nM. The inhibition – broadly, the change of the read-out against control, counted positive when it falls – at 0.123 µM (Concentration 0.123 μM) came to 5%.
On to `Nc1ncnc2c1c(SC1CCCCC1O)nn2[C@@H]1O[C@H](COS(N)(=O)=O)[C@@H](O)[C@H]1O` (mixture of isomers) [Compound I-47, [(2R,3S,4R,5R)-5-(4-amino-3-{[(1R,2R)-2-hydroxycyclohexyl]sulfanyl}-1H-pyrazolo[3,4-d]pyrimidin-1-yl)-3,4-dihydroxytetrahydrofuran-2-yl]methyl Sulfamate and [(2R,3S,4R,5R)-5-(4-amino-3-{[(1S,2S)-2-hydroxycyclohexyl]sulfanyl}-1H-pyrazolo[3,4-d]pyrimidin-1-yl)-3,4-dihydroxytetrahydrofuran-2-yl]methyl Sulfamate], for which the IC50 lay within 100 to 500 nM. The inhibition at 0.123 µM (Concentration 0.123 μM) turned out to be 48%.
For `Nc1ncnc2c1c(SC1CCCC1O)nn2[C@@H]1O[C@H](COS(N)(=O)=O)[C@@H](O)[C@H]1O` (mixture of isomers) [Compound I-54, [(2R,3S,4R,5R)-5-(4-amino-3-{[(1R,2R)-2-hydroxycyclopentyl]sulfanyl}-1H-pyrazolo[3,4-d]pyrimidin-1-yl)-3,4-dihydroxytetrahydrofuran-2-yl]methyl Sulfamate and [(2R,3S,4R,5R)-5-(4-amino-3-{[(1S,2S)-2-hydroxycyclopentyl]sulfanyl}-1H-pyrazolo[3,4-d]pyrimidin-1-yl)-3,4-dihydroxytetrahydrofuran-2-yl]methyl Sulfamate], the IC50 lay within 20 to 50 nM. Where the note is “Concentration 0.123 μM”, the inhibition at 0.123 µM was found to be 75%.
`CC(Sc1nn([C@@H]2O[C@H](COS(N)(=O)=O)[C@@H](O)[C@H]2O)c2ncnc(N)c12)c1ccccc1` (mixture of isomers) [Compound I-70, [(2R,3S,4R,5R)-5-(4-amino-3-{[(1R)-1-phenylethyl]sulfanyl}-1H-pyrazolo[3,4-d]pyrimidin-1-yl)-3,4-dihydroxytetrahydrofuran-2-yl]methyl sulfamate and [(2R,3S,4R,5R)-5-(4-amino-3-{[(1S)-1-phenylethyl]sulfanyl}-1H-pyrazolo[3,4-d]pyrimidin-1-yl)-3,4-dihydroxytetrahydrofuran-2-yl]methyl sulfamate]: the IC50 was in the range of 50 to 100 nM. The inhibition at 0.123 µM (Concentration 0.123 μM) was found to be 70%.
As for `CC(Sc1nn([C@@H]2O[C@H](COS(N)(=O)=O)[C@@H](O)[C@@H]2F)c2ncnc(N)c12)C(F)(F)F` (mixture of isomers) [Compound I-101, [(2R,3R,4S,5R)-5-(4-amino-3-{[(2R)-1,1,1-trifluoropropan-2-yl]sulfanyl}-1H-pyrazolo[3,4-d]pyrimidin-1-yl)-4-fluoro-3-hydroxytetrahydrofuran-2-yl]methyl Sulfamate and [(2R,3R,4S,5R)-5-(4-amino-3-{[(2S)-1,1,1-trifluoropropan-2-yl]sulfanyl}-1H-pyrazolo[3,4-d]pyrimidin-1-yl)-4-fluoro-3-hydroxytetrahydrofuran-2-yl]methyl Sulfamate], the IC50 is over 500 nM and the inhibition at 0.111 µM worked out at 13%.
For `Nc1ncnc2c1c(SC1CCOC1)nn2[C@@H]1O[C@H](COS(N)(=O)=O)[C@@H](O)[C@@H]1F` (mixture of isomers) [Compound I-123, [(2R,3R,4S,5R)-5-{4-amino-3-[(3R)-tetrahydrofuran-3-ylsulfanyl]-1H-pyrazolo[3,4-d]pyrimidin-1-yl}-4-fluoro-3-hydroxytetrahydrofuran-2-yl]methyl sulfamate and [(2R,3R,4S,5R)-5-{4-amino-3-[(3S)-tetrahydrofuran-3-ylsulfanyl]-1H-pyrazolo[3,4-d]pyrimidin-1-yl}-4-fluoro-3-hydroxytetrahydrofuran-2-yl]methyl sulfamate], the IC50 was in the range of 20 to 50 nM and the inhibition at 0.111 µM came out at 78%.
As for `Nc1ncnc2c1c(SCC1CC1(F)F)nn2[C@@H]1O[C@H](COS(N)(=O)=O)[C@@H](O)[C@@H]1F` (mixture of isomers) [Compound I-131, {(2R,3R,4S,5R)-5-[4-amino-3-({[(1R)-2,2-difluorocyclopropyl]methyl}sulfanyl)-1H-pyrazolo[3,4-d]pyrimidin-1-yl]-4-fluoro-3-hydroxytetrahydrofuran-2-yl}methyl sulfamate and {(2R,3R,4S,5R)-5-[4-amino-3-({[(1S)-2,2-difluorocyclopropyl]methyl}sulfanyl)-1H-pyrazolo[3,4-d]pyrimidin-1-yl]-4-fluoro-3-hydroxytetrahydrofuran-2-yl}methyl sulfamate], the IC50 was 20 to 50 nM and the inhibition at 0.111 µM amounted to 76%.
With `CCC(C)Sc1nn([C@@H]2O[C@H](COS(N)(=O)=O)[C@@H](O)[C@@H]2F)c2ncnc(N)c12` (mixture of isomers) [Compound I-136, [(2R,3R,4S,5R)-5-{4-amino-3-[(2R)-butan-2-ylsulfanyl]-1H-pyrazolo[3,4-d]pyrimidin-1-yl}-4-fluoro-3-hydroxytetrahydrofuran-2-yl]methyl sulfamate and [(2R,3R,4S,5R)-5-{4-amino-3-[(2S)-butan-2-ylsulfanyl]-1H-pyrazolo[3,4-d]pyrimidin-1-yl}-4-fluoro-3-hydroxytetrahydrofuran-2-yl]methyl sulfamate], the IC50 lay in the range of 20 to 50 nM and the inhibition at 0.111 µM is 69%.
The like results for `CC(CO)Sc1nn([C@@H]2O[C@H](COS(N)(=O)=O)[C@@H](O)[C@@H]2F)c2ncnc(N)c12` (mixture of isomers) [Compound I-144, [(2R,3R,4S,5R)-5-(4-amino-3-{[(2R)-1-hydroxypropan-2-yl]sulfanyl}-1H-pyrazolo[3,4-d]pyrimidin-1-yl)-4-fluoro-3-hydroxytetrahydrofuran-2-yl]methyl sulfamate and [(2R,3R,4S,5R)-5-(4-amino-3-{[(2S)-1-hydroxypropan-2-yl]sulfanyl}-1H-pyrazolo[3,4-d]pyrimidin-1-yl)-4-fluoro-3-hydroxytetrahydrofuran-2-yl]methyl sulfamate] were, in that order, 20 to 50 nM and 74%.
With `CC(C#N)Sc1nn([C@@H]2O[C@H](COS(N)(=O)=O)[C@@H](O)[C@@H]2F)c2ncnc(N)c12` (mixture of isomers) [Compound I-149, [(2R,3R,4S,5R)-5-(4-amino-3-{[(1R)-1-cyanoethyl]sulfanyl}-1H-pyrazolo[3,4-d]pyrimidin-1-yl)-4-fluoro-3-hydroxytetrahydrofuran-2-yl]methyl sulfamate and [(2R,3R,4S,5R)-5-(4-amino-3-{[(1S)-1-cyanoethyl]sulfanyl}-1H-pyrazolo[3,4-d]pyrimidin-1-yl)-4-fluoro-3-hydroxytetrahydrofuran-2-yl]methyl sulfamate], the IC50 was 20 to 50 nM and the inhibition at 0.111 µM was 82%.
For `CC(Sc1nn([C@@H]2O[C@H](COS(N)(=O)=O)[C@@H](O)[C@@H]2F)c2ncnc(N)c12)C1CC1` (mixture of isomers) [Compound I-157, [(2R,3R,4S,5R)-5-(4-amino-3-{[(1R)-1-cyclopropylethyl]sulfanyl}-1H-pyrazolo[3,4-d]pyrimidin-1-yl)-4-fluoro-3-hydroxytetrahydrofuran-2-yl]methyl sulfamate and [(2R,3R,4S,5R)-5-(4-amino-3-{[(1S)-1-cyclopropylethyl]sulfanyl}-1H-pyrazolo[3,4-d]pyrimidin-1-yl)-4-fluoro-3-hydroxytetrahydrofuran-2-yl]methyl sulfamate] the same measures were 20 to 50 nM and 71%.
`CC(O)c1nn([C@@H]2O[C@H](COS(N)(=O)=O)[C@@H](O)[C@H]2O)c2ncnc(N)c12` (single isomer, unassigned) [Compound I-23a, [(2R,3S,4R,5R)-5-{4-amino-3-[(1R)-1-hydroxyethyl]-1H-pyrazolo[3,4-d]pyrimidin-1-yl}-3,4-dihydroxytetrahydrofuran-2-yl]methyl sulfamate or [(2R,3S,4R,5R)-5-{4-amino-3-[(1S)-1-hydroxyethyl]-1H-pyrazolo[3,4-d]pyrimidin-1-yl}-3,4-dihydroxytetrahydrofuran-2-yl]methyl Sulfamate]: the IC50 was over 500 nM. Further, the “Percent Inhibition” value (Concentration 0.123 μM) amounted to 19%.
As for `CC(O)c1nn([C@@H]2O[C@H](COS(N)(=O)=O)[C@@H](O)[C@H]2O)c2ncnc(N)c12` (single isomer, unassigned) [Compound I-23b, [(2R,3S,4R,5R)-5-{4-amino-3-[(1R)-1-hydroxyethyl]-1H-pyrazolo[3,4-d]pyrimidin-1-yl}-3,4-dihydroxytetrahydrofuran-2-yl]methyl Sulfamate or [(2R,3S,4R,5R)-5-{4-amino-3-[(1S)-1-hydroxyethyl]-1H-pyrazolo[3,4-d]pyrimidin-1-yl}-3,4-dihydroxytetrahydrofuran-2-yl]methyl Sulfamate], the IC50 is 100 to 500 nM. Besides, the inhibition at 0.123 µM (Concentration 0.123 μM) came out at 22%.
